Laboratory results as given in ChEMBL document CHEMBL4145536, “Design, synthesis and biological evaluation of novel bouchardatine analogs as potential inhibitors of adipogenesis/lipogenesis in 3T3-L1 adipocytes” (Eur J Med Chem, 2018).
pEC50, pIC50: −log10 of the molar value. Active and inactive are the calls of the source. No cut-off for these calls is given here.

Legend:
[1] = system: 3T3-L1; assay: Lipid lowering activity in mouse 3T3L1 cells assessed as decrease in triglyceride level at 10 uM for 6 days by oil red o-staining based assay relative to control; format: functional; parameters: scale not given: the % may be the effect or the level left
[2] = system: HepG2; assay: Lipid lowering activity in human HepG2 cells assessed as decrease in triglyceride level at 10 uM for 6 days in presence of oleic acid by oil red o-staining based assay relative to control; format: functional; parameters: scale not given: the % may be the effect or the level left
[3] = system: 3T3-L1; assay: Cytotoxicity against mouse 3T3L1 cells assessed as decrease in cell viability after 24 hrs by MTT assay; format: cell-based; conditions: 3T3-L1, 24 h
[4] = system: HepG2; assay: Cytotoxicity against human HepG2 cells assessed as decrease in cell viability after 24 hrs by MTT assay; format: cell-based; conditions: HepG2, 24 h
[5] = system: 3T3-L1; assay: Lipid lowering activity in mouse 3T3L1 cells assessed as decrease in triglyceride level at 10 uM for 6 days by oil red o-staining based microscopic assay; format: functional, cell-based
[6] = system: 3T3-L1; assay: Lipid lowering activity in mouse 3T3L1 cells assessed as decrease in triglyceride level treated 2 days post confluent for 9 days by oil red o-staining based assay; format: functional, cell-based
[7] = system: 3T3-L1; assay: Cytotoxicity against mouse 3T3L1 cells assessed as decrease in cell viability up to 10 uM measured up to 72 hrs by LDH release assay; format: cell-based; conditions: 3t3-l1, 72 h
[8] = organism: Mus musculus; assay: Induction of AMPKalpha phosphorylation at Thr172 residue in mouse 3T3L1 cells at 2 mM after 4 hrs by Western blot analysis; format: cell-based

Clc1c(-c2nc(NCCCN3CCCC3)c3ccccc3n2)[nH]c2ccccc12
Activity [1]: 53.8%
Activity [2]: 51.4%
pIC50 [3]: 4.70
pIC50 [4]: 5.33

CN(C)CCCNc1nc(-c2cc3ccccc3[nH]2)nc2ccccc12
Activity [1]: 48.2%
Activity [2]: 5.8%
pIC50 [3]: 4.52
pIC50 [4]: 4.35

CCN(CC)CCNc1nc(-c2[nH]c3ccccc3c2Cl)nc2ccccc12
Activity [1]: 87.5%
Activity [2]: 15.6%
pIC50 [3]: 4.72
pIC50 [4]: 5.34

Clc1c(-c2nc(NCCN3CCCCC3)c3ccccc3n2)[nH]c2ccccc12
Activity [1]: 70.3%
Activity [2]: 52%
pIC50 [3]: 4.38
pIC50 [4]: 4.74
Activity [5]: Active

Clc1nc(-c2[nH]c3ccccc3c2Br)nc2ccccc12
Activity [1]: 58.9%
Activity [2]: 0.9%
pIC50 [3]: < 4.30
pIC50 [4]: < 4.30
Activity [5]: Active

O=c1[nH]c(-c2[nH]c3ccccc3c2Cl)nc2ccccc12
Activity [1]: 35.4%
Activity [2]: 51.9%
pIC50 [3]: < 4.30
pIC50 [4]: < 4.30
Activity [5]: Active

Brc1c(-c2nc(NCCN3CCCC3)c3ccccc3n2)[nH]c2ccccc12
Activity [1]: 84.2%
Activity [2]: 54.3%
pIC50 [3]: 4.90
pIC50 [4]: 5.37

O=c1[nH]c(-c2cc3ccccc3[nH]2)nc2ccccc12
Activity [1]: 43.8%
Activity [2]: 14.9%
pIC50 [3]: 4.36
pIC50 [4]: 4.83

Brc1c(-c2nc(NCCCN3CCCC3)c3ccccc3n2)[nH]c2ccccc12
Activity [1]: 81.6%
Activity [2]: 53.1%
pIC50 [3]: 5.02
pIC50 [4]: 5.51

CCN(CC)CCNc1nc(-c2[nH]c3ccccc3c2Br)nc2ccccc12
Activity [1]: 86.5%
Activity [2]: 50%
pIC50 [3]: 4.81
pIC50 [4]: 5.21

O=c1[nH]c(-c2[nH]c3ccccc3c2Br)nc2ccccc12
Activity [1]: 34.6%
Activity [2]: 40.4%
pIC50 [3]: < 4.30
pIC50 [4]: < 4.30
Activity [5]: Active

Fc1c(-c2nc(NCCN3CCCC3)c3ccccc3n2)[nH]c2ccccc12
Activity [1]: 64.2%
Activity [2]: 23.6%
pIC50 [3]: 4.61
pIC50 [4]: 5.14

Clc1c(-c2nc(NCCN3CCOCC3)c3ccccc3n2)[nH]c2ccccc12
Activity [1]: 54.6%
Activity [2]: 46.9%
pIC50 [3]: 4.42
pIC50 [4]: 4.81

CN(C)CCNc1nc(-c2[nH]c3ccccc3c2F)nc2ccccc12
Activity [1]: 57.3%
Activity [2]: 24.2%
pIC50 [3]: 4.66
pIC50 [4]: 5.38

O=c1[nH]c(C2=Nc3ccccc3C2(F)F)nc2ccccc12
Activity [1]: 39.4%
Activity [2]: 24.1%
pIC50 [3]: < 4.30
pIC50 [4]: < 4.30
Activity [5]: Active

CC(C)CCNc1nc(-c2[nH]c3ccccc3c2F)nc2ccccc12
Activity [1]: 37.3%
Activity [2]: 38.7%
pIC50 [3]: < 4.30
pIC50 [4]: 4.54
Activity [5]: Active

CN(C)CCCNc1nc(-c2[nH]c3ccccc3c2F)nc2ccccc12
Activity [1]: 45%
Activity [2]: 32.7%
pIC50 [3]: 4.65
pIC50 [4]: 5.22

CN(C)CCCNc1nc(-c2[nH]c3ccccc3c2Br)nc2ccccc12
Activity [1]: 59.2%
Activity [2]: 28.3%
pIC50 [3]: 4.94
pIC50 [4]: 5.37
Activity [5]: Active

CN1CCN(CCCNc2nc(-c3[nH]c4ccccc4c3F)nc3ccccc23)CC1
Activity [1]: 42.5%
Activity [2]: 22.5%
pIC50 [3]: 4.70
pIC50 [4]: 5.28

OCCCNc1nc(-c2[nH]c3ccccc3c2F)nc2ccccc12
Activity [1]: 44.4%
Activity [2]: 26.3%
pIC50 [3]: < 4.30
pIC50 [4]: 4.52

CN(C)CCCNc1nc(-c2[nH]c3ccccc3c2Cl)nc2ccccc12
Activity [1]: 49.5%
Activity [2]: 35.8%
pIC50 [3]: 4.74
pIC50 [4]: 5.39

CN(C)CCNc1nc(-c2[nH]c3ccccc3c2Cl)nc2ccccc12
Activity [1]: 89.1%
Activity [2]: 33%
pIC50 [3]: 4.83
pIC50 [4]: 5.57

Brc1c(-c2nc(NCCN3CCCCC3)c3ccccc3n2)[nH]c2ccccc12
Activity [1]: 83.8%
Activity [2]: 62.1%
pIC50 [3]: 4.88
pIC50 [4]: 5.29

CN1CCN(CCCNc2nc(-c3[nH]c4ccccc4c3Cl)nc3ccccc23)CC1
Activity [1]: 83.4%
Activity [2]: 41.2%
pIC50 [3]: 4.84
pIC50 [4]: 5.57

CN(C)CCCNc1nc(-c2[nH]c3ccccc3c2C=O)nc2ccccc12
Activity [1]: 82.1%
Activity [2]: 52.1%
pIC50 [3]: 4.46
pIC50 [4]: 4.56
Activity [5]: Active

Clc1c(-c2nc(NCCCN3CCOCC3)c3ccccc3n2)[nH]c2ccccc12
Activity [1]: 56.6%
Activity [2]: 36.6%
pIC50 [3]: 4.52
pIC50 [4]: 4.99

c1ccc2[nH]c(-c3nc(NCCCN4CCCC4)c4ccccc4n3)cc2c1
Activity [1]: 42.7%
Activity [2]: 14.2%
pIC50 [3]: < 4.30
pIC50 [4]: < 4.30

OCCNc1nc(-c2[nH]c3ccccc3c2Cl)nc2ccccc12
Activity [1]: 38.3%
Activity [2]: 53.1%
pIC50 [3]: < 4.30
pIC50 [4]: 4.68

CN(C)CCNc1nc(-c2cc3ccccc3[nH]2)nc2ccccc12
Activity [1]: 42.3%
Activity [2]: 0.6%
pIC50 [3]: 4.89
pIC50 [4]: 4.60

Fc1c(-c2nc(Cl)c3ccccc3n2)[nH]c2ccccc12
Activity [1]: 71.8%
Activity [2]: 40.7%
pIC50 [3]: < 4.30
pIC50 [4]: < 4.30
Activity [5]: Active
Activity [6]: Dose-dependent effect
pEC50 [6]: 6.04
Activity [7]: Non-Toxic

CC(C)CNc1nc(-c2[nH]c3ccccc3c2Cl)nc2ccccc12
Activity [1]: 45.7%
Activity [2]: 42.8%
pIC50 [3]: < 4.30
pIC50 [4]: 4.64
Activity [5]: Active

CN(C)CCNc1nc(-c2[nH]c3ccccc3c2Br)nc2ccccc12
Activity [1]: 56.4%
Activity [2]: 46.1%
pIC50 [3]: 4.94
pIC50 [4]: 5.39
Activity [5]: Active

c1ccc2[nH]c(-c3nc(NCCN4CCCC4)c4ccccc4n3)cc2c1
Activity [1]: 66.8%
Activity [2]: 13.1%
pIC50 [3]: 4.69
pIC50 [4]: 4.39

Clc1c(-c2nc(NCCN3CCCC3)c3ccccc3n2)[nH]c2ccccc12
Activity [1]: 60.5%
Activity [2]: 42.5%
pIC50 [3]: 4.61
pIC50 [4]: 5.60

NC(=O)c1ncn([C@@H]2O[C@H](CO)[C@@H](O)[C@H]2O)c1N
Activity [8]: Active

Clc1nc(-c2[nH]c3ccccc3c2Cl)nc2ccccc12
Activity [1]: 45.6%
Activity [2]: 37.7%
pIC50 [3]: < 4.30
pIC50 [4]: < 4.30
Activity [5]: Active

Brc1c(-c2nc(NCCCN3CCCCC3)c3ccccc3n2)[nH]c2ccccc12
Activity [1]: 84.9%
Activity [2]: 62.3%
pIC50 [3]: 4.83
pIC50 [4]: 5.22

O=Cc1c(-c2nc(NCCN3CCCC3)c3ccccc3n2)[nH]c2ccccc12
Activity [1]: 94.9%
